Data reported in patent US20060106049A1, “Histone deacetylase inhibitors and methods of use” (The University of chicago, priority 2004, published 2006).
“Also recorded” adds a separate entry of the source.

Legend:
[1] = test system: bone marrow blasts; experiment: Phase II study of depsipeptide in relapsed or refractory AML: anti-leukemic response; format: in vivo, human
Source text: (§1) Eighteen patients (median age=60 years, age range=25-77 years) with relapsed or refractory AML were enrolled in a multicenter Phase II study of depsipeptide for the treatment of AML. Patients were divided into two groups upon entry into the study: Group A (n=14), which included patients without specific chromosomal abnormalities correlated with recruitment of histone deacetylases; and Group B (n=4), which included patients with chromosomal aberrations associated with recruitment of histone deacetylases, such as t(8;21), inv 16, or t(15; 17).
(§2) FK228 (Fujisawa, Osaka, Japan) was administered intravenously over four hours at a dose of 13.3 mg/m^2/d on days 1, 8, and 15 of a 28-day cycle. Peripheral blood mononuclear cells were obtained prior to (hour 0) and 4 hours (hour 4) and 24 hours (hour 24) after dosing on days 1 and 8 and used to evaluate histone acetylation by flow cytometry and gene re-expression by REAL-time RT-PCR. Target genes of interest include MDR1, a target of HDI-mediated upregulation, and p15^INK4B (P15), a target of DNA hypermethylation in AML.

[2] = test system: H3 acetylation; experiment: Histone acetylation by flow cytometry in peripheral blood mononuclear cells; format: in vivo, human
Experimental: as §2

[3] = test system: MDR1; experiment: Gene re-expression by REAL-time RT-PCR in peripheral blood mononuclear cells (MDR1); format: in vivo, human; conditions: hr 4 on days 1 and 8; normalized to ABL; p=0.04
Experimental: as §2
(§3) MDR1 and p15 copy numbers were expressed as a normalized quotient of MDR1 and p15, respectively, to the housekeeping gene ABL.

[4] = test system: p15INK4B (P15); experiment: Gene re-expression by REAL-time RT-PCR in peripheral blood mononuclear cells (p15); format: in vivo, human; conditions: normalized to ABL; p-0.01
Experimental: as §2, §3

[5] = Tolerability in Phase II AML study; format: in vivo, human; conditions: AML patients, 13.3 mg/m2/d iv days 1, 8, 15 of 28-day cycle
Source text: as §1, §2

[6] = test system: HDAC; conditions: cited from earlier work
[7] = test system: HDAC; conditions: formed from FK228 by dithiothreitol reduction in vitro; cited from earlier work

Q: For `C/C=C1\NC(=O)[C@H]2CSSCC/C=C/[C@H](CC(=O)N[C@H](C(C)C)C(=O)N2)OC(=O)[C@H](C(C)C)NC1=O` [FK228], which “response of patient having a t(4;21) translocation” value ([1]; 13.3 mg/m2/d iv days 1, 8, 15 of 28-day cycle) is on record?
A: responded to the treatment

Q: What about the “objective evidence of response (complete or partial remission) or other anti-leukemic activity” value ([1]; Group A (n=14), patients without chromosomal abnormalities correlated with HDAC recruitment, 13.3 mg/m2/d iv over 4 h, days 1, 8, 15 of 28-day cycle) of the same compound?
A: No objective evidence of response

Q: What about the “patients exhibiting marked reduction of bone marrow blasts” value ([1]; Group B (n=4), chromosomal aberrations associated with HDAC recruitment, after one cycle, 13.3 mg/m2/d iv) of the same compound?
A: 50%

Q: What about the “time to increase in bone marrow blasts following cessation of therapy” value ([1]; both responding Group B patients, antileukemic effect short-lived) of the same compound?
A: ≤ 30 days

Q: What about the “hematopoiesis in responding patients” value ([1]; responders of Group B, following the second cycle of treatment, 13.3 mg/m2/d iv) of the same compound?
A: return to substantially normal hematopoiesis; also recorded: recovery of near-normal hematopoiesis

Q: And the “bone marrow blast percentage in responding patients” value ([1]; responders with AML1 translocations (t(8;21), t(4;21)), normocellular marrow after one cycle, 13.3 mg/m2/d iv)?
A: < 5%

Q: What about the “patients exhibiting increase H3 acetylation” value ([2]; 4 of 14 patients) of the same compound?
A: 28%

Q: And the “patients exhibiting an increase in H3 acetylation” value ([2]; Group B cohort (3 of 4), at 4 and/or 24 hours after dosing)?
A: 75%

Q: What about the “overall mean increase in MDR1 expression” value [3] of the same compound?
A: 41%

Q: What about the “mean increase in p15 expression” value [4] of the same compound?
A: 91%

Q: What about the “most common adverse effects” value [5] of the same compound?
A: grade ½ nausea, vomiting, and fatigue

Q: And the tolerability [5]?
A: well tolerated

Q: What about the “HDAC inhibition in vivo” value [6] of the same compound?
A: strongly inhibits HDAC

Q: Which HDAC inhibition [7] does the source give for `C/C=C1\NC(=O)[C@@H](CS)NC(=O)[C@@H](C(C)C)NC(=O)C[C@@H](/C=C/CCS)OC(=O)[C@H](C(C)C)NC1=O` [FR135313] here?
A: capable of inhibiting HDAC
